Data reported in ChEMBL document CHEMBL1129875, “SYNTHESIS AND ANTISTAPHYLOCOCCAL ACTIVITY OF NEMATOPHIN AND ITS ANALOGS” (1997).
Values after ≈ are worked out from the molar mass of the structure shown.

Tested on: Staphylococcus aureus
Assay: Minimum inhibitory concentration required to inhibit Staphylococcus aureus ATCC 29213 cell growth
Format: functional

Row | Compound | MIC
1 | CCC(C)C(O)C(=O)NCCc1c[nH]c2ccccc12 (stereo unspecified) | > 100 µg/mL
2 | CCC(C)C(=O)C(=O)OCCc1c[nH]c2ccccc12 (stereo unspecified) | 25 µg/mL (≈ 91.5 µM)
3 | CC(C)CC(=O)C(=O)NCCc1c[nH]c2ccccc12 | 0.7 µg/mL (≈ 2.57 µM)
4 | CCC(C)/C(=N\OC)C(=O)NCCc1c[nH]c2ccccc12 (stereo unspecified) | > 100 µg/mL
5 | CCC(C)C(=O)C(=O)NCCc1c[nH]c2ccc(C)cc12 (stereo unspecified) | 3 µg/mL (≈ 10.5 µM)
6 | CCC(C)C(=O)C(=O)NCCc1c[nH]c2ccccc12 (stereo unspecified) | 0.7 µg/mL (≈ 2.57 µM)
7 | CC(C)C(=O)C(=O)NCCc1c[nH]c2ccccc12 | 3 µg/mL (≈ 11.6 µM)
8 | CCC(C)C(=O)C(=O)NCCc1c[nH]c2cc(F)ccc12 (stereo unspecified) | 0.7 µg/mL (≈ 2.41 µM)
9 | CC(=O)C(=O)NCCc1c[nH]c2ccccc12 | 100 µg/mL (≈ 434 µM)
10 | CCC(C)C(=O)C(=O)NCCc1c[nH]c2ccc(OC)cc12 (stereo unspecified) | 3 µg/mL (≈ 9.92 µM)
11 | CCC(=O)C(=O)NCCc1c[nH]c2ccccc12 | 100 µg/mL (≈ 409 µM)
